Source: US10975077B2 (Novira Therapeutics, Inc., priority 2016, dated 2021)

Tested on: HBV (encapsidated HBV DNA, HepG2.2.15 cells)
Test: HBV replication inhibition assay, BDNA assay in HepG2.2.15 cells
Format: cell-based
Details: Activity in BDNA-assay
Protocol: HBV replication inhibition by the disclosed compounds were determined in cells infected or transfected with HBV, or cells with stably integrated HBV, such as HepG2.2.15 cells (Sells et al. 1987). In this example, HepG2.2.15 cells were maintained in cell culture medium containing 10% fetal bovine serum (FBS), Geneticin, L-glutamine, penicillin and streptomycin. HepG2.2.15 cells were seeded in 96-well plates at a density of 40,000 cells/well and were treated with serially diluted compounds at a final DMSO concentration of 0.5% either alone or in combination by adding drugs in a checker box format. Cells were incubated with compounds for three days, after which medium was removed and fresh medium containing compounds was added to cells and incubated for another three days. At day 6, supernatant was removed and treated with DNase at 37° C. for 60 minutes, followed by enzyme inactivation at 75° C. for 15 minutes. Encapsidated HBV DNA was released from the virions and covalently linked HBV polymerase by incubating in lysis buffer (Affymetrix QS0010) containing 2.5 μg proteinase K at 50° C. for 40 minutes. HBV DNA was denatured by addition of 0.2 M NaOH and detected using a branched DNA (BDNA) QuantiGene assay kit according to manufacturer recommendation (Affymetrix). HBV DNA levels were also quantified using qPCR, based on amplification of encapsidated HBV DNA extraction with QuickExtraction Solution (Epicentre Biotechnologies) and amplification of HBV DNA using HBV specific PCR probes that can hybridize to HBV DNA and a fluorescently labeled probe for quantitation. In addition, cell viability of HepG2.2.15 cells incubated with test compounds alone or in combination was determined by using CellTitre-Glo reagent according to the manufacturer protocol (Promega). The mean background signal from wells containing only culture medium was subtracted from all other samples, and percent inhibition at each compound concentration was calculated by normalizing to signals from HepG2.2.15 cells treated with 0.5% DMSO using equation E1. % inhibition=(DMSOave−Xi)/DMSOave×100% E1: where DMSOave is the mean signal calculated from the wells that were treated with DMSO control (0% inhibition control) and Xi is the signal measured from the individual wells. EC50 values, effective concentrations that achieved 50% inhibitory effect, were determined by non-linear fitting using Graphpad Prism software (San Diego, Calif.) and equation E2: Y=Y min+(Y max −Y min)/(1+10(Log EC50−X)×HillSlope) E2: […]
where Y represents percent inhibition values and X represents the logarithm of compound concentrations.
Selected disclosed compounds were assayed in the HBV replication assay (BDNA assay), as described above and a representative group of these active compounds is shown in Table 6.

Row | SMILES | EC50 [nM]
1 | CCC(O)C1CN(C)C(=O)c2c3c(nn2C1)CCN(C(=O)Nc1ccc(F)c(C#N)c1F)C3 (single isomer, unassigned) [Compound 098_E3, (S*)—N-(3-cyano-2,4-difluorophenyl)-8-((S*)-1-hydroxypropyl)-10-methyl-11-oxo-1,3,4,7,8,9,10,11-octahydro-2H-pyrido[4′,3′:3,4]pyrazolo[1,5-a][1,4]diazepine-2-carboxamide] | 100 to 500
2 | CCC(O)C1CN(C)C(=O)c2c3c(nn2C1)CCN(C(=O)Nc1ccc(F)c(C#N)c1F)C3 (single isomer, unassigned) [Compound 098_E4, (R*)—N-(3-cyano-2,4-difluorophenyl)-8-((R*)-1-hydroxypropyl)-10-methyl-11-oxo-1,3,4,7,8,9,10,11-octahydro-2H-pyrido[4′,3′:3,4]pyrazolo[1,5-a][1,4]diazepine-2-carboxamide] | 500 to 1000
3 | CCC(O)C1CN(C)C(=O)c2c3c(nn2C1)CCN(C(=O)Nc1ccc(F)c(C(F)(F)F)c1)C3 (single isomer, unassigned) [Compound 099_E1, (R*)—N-(4-fluoro-3-(trifluoromethyl)phenyl)-8-((S*)-1-hydroxypropyl)-10-methyl-11-oxo-1,3,4,7,8,9,10,11-octahydro-2H-pyrido[4′,3′:3,4]pyrazolo[1,5-a][1,4]diazepine-2-carboxamide] | 1 to 100
4 | CCC(O)C1CN(C)C(=O)c2c3c(nn2C1)CCN(C(=O)Nc1ccc(F)c(C(F)(F)F)c1)C3 (single isomer, unassigned) [Compound 099_E2, (S*)—N-(4-fluoro-3-(trifluoromethyl)phenyl)-8-((R*)-1-hydroxypropyl)-10-methyl-11-oxo-1,3,4,7,8,9,10,11-octahydro-2H-pyrido[4′,3′:3,4]pyrazolo[1,5-a][1,4]diazepine-2-carboxamide] | 100 to 500
5 | CCC(O)C1CN(C)C(=O)c2c3c(nn2C1)CCN(C(=O)Nc1ccc(F)c(C(F)(F)F)c1)C3 (single isomer, unassigned) [Compound 099_E3, (S*)—N-(4-fluoro-3-(trifluoromethyl)phenyl)-8-((S*)-1-hydroxypropyl)-10-methyl-11-oxo-1,3,4,7,8,9,10,11-octahydro-2H-pyrido[4′,3′:3,4]pyrazolo[1,5-a][1,4]diazepine-2-carboxamide] | 1 to 100
6 | CCC(O)C1CN(C)C(=O)c2c3c(nn2C1)CCN(C(=O)Nc1ccc(F)c(C(F)(F)F)c1)C3 (single isomer, unassigned) [Compound 099_E4, (R*)—N-(4-fluoro-3-(trifluoromethyl)phenyl)-8-((R*)-1-hydroxypropyl)-10-methyl-11-oxo-1,3,4,7,8,9,10,11-octahydro-2H-pyrido[4′,3′:3,4]pyrazolo[1,5-a][1,4]diazepine-2-carboxamide] | 100 to 500
7 | CN1CC(CNCC(F)F)Cn2nc3c(c2C1=O)CN(C(=O)Nc1ccc(F)c(C(F)(F)F)c1)CC3 (single isomer, unassigned) [Compound 119_E1, (R*)-8-(((2,2-difluoroethyl)amino)methyl)-N-(4-fluoro-3-(trifluoromethyl)phenyl)-10-methyl-11-oxo-1,3,4,7,8,9,10,11-octahydro-2H-pyrido[4′,3′:3,4]pyrazolo[1,5-a][1,4]diazepine-2-carboxamide] | 100 to 500
8 | CN1CC(CNCC(F)F)Cn2nc3c(c2C1=O)CN(C(=O)Nc1ccc(F)c(C(F)(F)F)c1)CC3 (single isomer, unassigned) [Compound 119_E2, (S*)-8-(((2,2-difluoroethyl)amino)methyl)-N-(4-fluoro-3-(trifluoromethyl)phenyl)-10-methyl-11-oxo-1,3,4,7,8,9,10,11-octahydro-2H-pyrido[4′,3′:3,4]pyrazolo[1,5-a][1,4]diazepine-2-carboxamide] | 1 to 100
9 | C=CC(O)C1CN(C)C(=O)c2c3c(nn2C1)CC(C)N(C(=O)Nc1ccc(F)c(C#N)c1)C3 (single isomer, unassigned) [Compound 123_D1, (3R,8S*)—N-(3-cyano-4-fluorophenyl)-8-((R*)-1-hydroxyallyl)-3,10-dimethyl-11-oxo-1,3,4,7,8,9,10,11-octahydro-2H-pyrido[4′,3′:3,4]pyrazolo[1,5-a][1,4]diazepine-2-carboxamide] | 1 to 100
10 | C=CC(O)C1CN(C)C(=O)c2c3c(nn2C1)CC(C)N(C(=O)Nc1ccc(F)c(C#N)c1)C3 (single isomer, unassigned) [Compound 123_D2, (3R,8S*)—N-(3-cyano-4-fluorophenyl)-8-((S*)-1-hydroxyallyl)-3,10-dimethyl-11-oxo-1,3,4,7,8,9,10,11-octahydro-2H-pyrido[4′,3′:3,4]pyrazolo[1,5-a][1,4]diazepine-2-carboxamide] | 100 to 500
11 | CN1CC(CNCC(F)F)Cn2nc3c(c2C1=O)CN(C(=O)Nc1cc(Br)c(F)cc1F)CC3 (single isomer, unassigned) [Compound 125_E1, (R*)—N-(5-bromo-2,4-difluorophenyl)-8-(((2,2-difluoroethyl)amino)methyl)-10-methyl-11-oxo-1,3,4,7,8,9,10,11-octahydro-2H-pyrido[4′,3′:3,4]pyrazolo[1,5-a][1,4]diazepine-2-carboxamide] | 100 to 500

Same assay, conditions: Hepatitis B virus, HepG2.2.15, Activity in BDNA-assay

Row | SMILES | EC50 [nM]
12 | CCC(O)C1CN(C)C(=O)c2c3c(nn2C1)CCN(C(=O)Nc1ccc(F)c(Cl)c1F)C3 (single isomer, unassigned) [Compound 100_E1, (R*)—N-(3-chloro-2,4-difluorophenyl)-8-((S*)-1-hydroxypropyl)-10-methyl-11-oxo-1,3,4,7,8,9,10,11-octahydro-2H-pyrido[4′,3′:3,4]pyrazolo[1,5-a][1,4]diazepine-2-carboxamide] | 1 to 100
13 | CCC(O)C1CN(C)C(=O)c2c3c(nn2C1)CCN(C(=O)Nc1ccc(F)c(Br)c1F)C3 (single isomer, unassigned) [Compound 101_E1, (R*)—N-(3-bromo-2,4-difluorophenyl)-8-((S*)-1-hydroxypropyl)-10-methyl-11-oxo-1,3,4,7,8,9,10,11-octahydro-2H-pyrido[4′,3′:3,4]pyrazolo[1,5-a][1,4]diazepine-2-carboxamide] | 1 to 100
14 | CCC(O)C1CN(C)C(=O)c2c3c(nn2C1)CCN(C(=O)Nc1ccc(F)c(C(F)(F)F)c1F)C3 (single isomer, unassigned) [Compound 103_E1, (R*)—N-(2,4-difluoro-3-(trifluoromethyl)phenyl)-8-((S*)-1-hydroxypropyl)-10-methyl-11-oxo-1,3,4,7,8,9,10,11-octahydro-2H-pyrido[4′,3′:3,4]pyrazolo[1,5-a][1,4] diazepine-2-carboxamide] | 1 to 100
15 | CCC(O)C1CN(C)C(=O)c2c3c(nn2C1)CCN(C(=O)Nc1cc(F)c(F)c(F)c1)C3 (single isomer, unassigned) [Compound 104_E1, (R*)-8-((S*)-1-hydroxypropyl)-10-methyl-11-oxo-N-(3,4,5-trifluorophenyl)-1,3,4,7,8,9,10,11-octahydro-2H-pyrido[4′,3′:3,4]pyrazolo[1,5-a][1,4] diazepine-2-carboxamide] | 1 to 100
16 | CCC(O)C1CN(C)C(=O)c2c3c(nn2C1)CCN(C(=O)Nc1cc(F)c(F)c(F)c1F)C3 (single isomer, unassigned) [Compound 105_E1, (R*)-8-((S*)-1-hydroxypropyl)-10-methyl-11-oxo-N-(2,3,4,5-tetrafluorophenyl)-1,3,4,7,8,9,10,11-octahydro-2H-pyrido[4′,3′:3,4]pyrazolo[1,5-a][1,4]diazepine-2-carboxamide] | 1 to 100
17 | CN1CC(CNCC(F)F)Cn2nc3c(c2C1=O)CN(C(=O)Nc1ccc(F)c(C#N)c1)CC3 (single isomer, unassigned) [Compound 118_E1, (R*)—N-(3-cyano-4-fluorophenyl)-8-(((2,2-difluoroethyl)amino)methyl)-10-methyl-11-oxo-1,3,4,7,8,9,10,11-octahydro-2H-pyrido[4′,3′:3,4]pyrazolo[1,5-a][1,4]diazepine-2-carboxamide] | 100 to 500
18 | CN1CC(CNCC(F)F)Cn2nc3c(c2C1=O)CN(C(=O)Nc1ccc(F)c(C#N)c1)CC3 (single isomer, unassigned) [Compound 118_E2, (S*)—N-(3-cyano-4-fluorophenyl)-8-(((2,2-difluoroethyl)amino)methyl)-10-methyl-11-oxo-1,3,4,7,8,9,10,11-octahydro-2H-pyrido[4′,3′:3,4]pyrazolo[1,5-a][1,4]diazepine-2-carboxamide] | 1 to 100
